Data taken from patent US20040034219A1, “Benzothiophene derivative compounds process of preparation and use thereof” (priority 2000, published 2004).
Counter-ions that a name gives are not always drawn.

How the values were obtained:
[1] = target: T1, 5-HT1A receptors (Rattus norvegicus, UniProt P19327); assay: Tests for fixing to serotonin 5HT1A receptors, 3H-DPAT displacement; format: binding; conditions: membranes of rat cerebral cortex, 3H-DPAT 1 nM, 15 minutes at 37° C.
T1 construct: fraction of membranes isolated from the cerebral cortex of rats; from tissue; host or cells: rat cerebral (frontal) cortex membranes
T1 sequence (P19327 1-422): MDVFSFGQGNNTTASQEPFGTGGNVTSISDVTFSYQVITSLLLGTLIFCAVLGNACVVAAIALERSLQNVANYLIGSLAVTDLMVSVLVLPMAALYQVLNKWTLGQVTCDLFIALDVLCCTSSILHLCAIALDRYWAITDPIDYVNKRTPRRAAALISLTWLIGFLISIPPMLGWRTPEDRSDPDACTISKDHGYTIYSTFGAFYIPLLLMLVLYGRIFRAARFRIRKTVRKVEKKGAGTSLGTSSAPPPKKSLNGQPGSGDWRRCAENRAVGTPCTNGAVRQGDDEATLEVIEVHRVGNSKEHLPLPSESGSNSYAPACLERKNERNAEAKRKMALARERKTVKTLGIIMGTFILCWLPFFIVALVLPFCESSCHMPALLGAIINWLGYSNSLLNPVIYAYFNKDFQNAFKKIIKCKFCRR
Description: Tests for Fixing to Serotonin 5HT1A Receptors
The technique described by Hoyer and collaborators (Eur. J. Pharmacol. 118:13-23.1985) was used to determine the affinity of the products for the 5-HT1A receptors. The studies were carried out with the fraction of membranes isolated from the cerebral cortex of rats. The agonist ^3H-Dipropylaminotetraline (DPAT) was used as specific ligand, while non-radioactive DPAT was used as displacing ligand.
In order to isolate the fraction of membranes, the frontal cortex of the rat was dissected and homogenised in Tris-HCl 50 mM, pH 7.7 at 4° C. The resulting homogenate was centrifuged at 25000 rpm for 15 minutes at 4° C. and the sediment resuspended in Tris-HCl containing CaCl2 4 mM. For the fixing test the suspension of membranes was incubated with ^3H-DPAT (1 nM) and different concentrations of the cold displacing agent. Once the incubation period of 15 minutes at 37° C. had elapsed, the membrane fraction was separated by means of rapid filtration and the radioactivity of the combined fraction quantified by means of liquid scintillation.
(§1) The results are expressed as the Ki of the serotonin transporter and the Ki of the 5-HT1A receptor.

[2] = target: T2, serotonin transporter (Rattus norvegicus, UniProt P31652); assay: Tests of fixing to the serotonin transporter (5-HT), 3H-paroxetine displacement; format: binding; conditions: membranes of rat cerebral cortex, 3H-paroxetine 0.1 nM, 60 minutes at 22° C.
T2 construct: a fraction of semi-purified membranes of the cerebral cortex of rat; from tissue; host or cells: rat cerebral cortex membranes
T2 sequence (P31652 whole entry): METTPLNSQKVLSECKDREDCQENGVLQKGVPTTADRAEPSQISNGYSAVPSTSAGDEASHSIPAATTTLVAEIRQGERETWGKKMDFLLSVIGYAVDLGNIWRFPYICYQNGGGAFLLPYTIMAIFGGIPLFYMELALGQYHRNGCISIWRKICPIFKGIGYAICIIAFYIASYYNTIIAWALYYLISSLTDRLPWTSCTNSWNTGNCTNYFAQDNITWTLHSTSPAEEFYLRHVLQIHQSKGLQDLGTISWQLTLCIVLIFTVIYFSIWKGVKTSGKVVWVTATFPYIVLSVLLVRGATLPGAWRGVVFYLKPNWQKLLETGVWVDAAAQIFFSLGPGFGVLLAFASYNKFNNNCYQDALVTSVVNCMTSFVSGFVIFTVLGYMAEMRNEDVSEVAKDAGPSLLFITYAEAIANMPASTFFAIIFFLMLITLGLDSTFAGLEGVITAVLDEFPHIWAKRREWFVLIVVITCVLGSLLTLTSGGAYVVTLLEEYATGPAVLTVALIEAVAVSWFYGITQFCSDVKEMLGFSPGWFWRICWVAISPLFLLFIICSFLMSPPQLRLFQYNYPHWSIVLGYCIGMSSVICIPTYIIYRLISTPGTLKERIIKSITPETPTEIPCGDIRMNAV
Description: Tests of Fixing to the Serotonin Transporter (5-HT)
The biological material used was a fraction of semi-purified membranes of the cerebral cortex of rat, obtained using the method described above.
The membrane fraction was resuspended in Tris-HCl 50 mM, pH 7.4 at 40° C., which contained NaCl 120 mM and KCl 5 mM, and was incubated with ^3H-paroxetine 0.1 nM and different concentrations of fluoxetine as displacing agent. At the end of the period of incubation of 60 minutes at 22° C. the membrane fraction was separated by rapid filtration and the radioactivity of the combined fraction quantified by means of liquid scintillation.
as §1

| SMILES | melting point [°C] | Ki [1] [nM] | Ki [2] [nM] |
| --- | --- | --- | --- |
| OC(CCN1CCN(c2cccc3cccnc23)CC1)c1csc2ccc(F)cc12 (stereo not drawn) [Example 27, 1-(5-fluorobenzo[b]thiophen-3-yl)-3-[4-(quinol-8-yl)piperazin-1-yl]propan-1-ol] | 89 to 91 | 2.7 | 7.5 |
| O=C(CCN1CCN(c2ccc3ccccc3n2)CC1)c1csc2ccccc12 [Example 14, 1-(benzo[b]thiophen-3-yl)-3-[4-(quinol-2-yl)piperazin-1-yl]propan-1-one] | 92 to 96 | – | – |
| Cc1ccc2cccc(N3CCN(CCC(O)c4csc5ccccc45)CC3)c2n1 (stereo not drawn) [Example 36, 1-(benzo[b]thiophen-3-yl)-3-[4-(quinaldin-8-yl)piperazin-1-yl]propan-1-ol hydrochloride] | – | 10.2 | 9.9 |
| Cl.Cl.O=C(CCN1CCN(c2cccc3cccnc23)CC1)c1csc2ccccc12 | 150 to 152 | – | – |
| Oc1ccc2scc(C(O)CCN3CCN(c4cccc5c4OCCO5)CC3)c2c1 (stereo not drawn) [Example 50, 1-(5-hydroxybenzo[b]thiophen-3-yl)-3-[4-(2,3-dihydro-1,4-benzodioxyn-5-yl)piperazin-1-yl]propan-1-ol] | – | 18.2 | 6.2 |
| OC(CCN1CCN(c2ccc3ccccc3n2)CC1)c1csc2ccccc12 (stereo not drawn) [Example 44, 1-(benzo [b]thiophen-3-yl) -3-[4-(quinol-2-yl)piperazin-1-yl]propan-1-ol] | – | 377 | 6.4 |
| OC(CCN1CCN(c2cccc3ncccc23)CC1)c1csc2ccccc12 (stereo not drawn) [Example 37, 1-(benzo[b]thiophen-3-yl)-3-[4-(quinol-5-yl)piperazin-1-yl]propan-1-ol] | 127 to 129 | 26.1 | 12.7 |
| OC(CCN1CCN(c2cccc3c2OCCO3)CC1)c1csc2ccc(F)cc12 (stereo not drawn) [Example 28, 1-(5-fluorobenzo[b]thiophen-3-yl)-3-[4-(2,3-dihydro-1,4-benzodioxyn-5-yl)piperazin-1-yl]propan-1-ol] | 147 to 150 | 6 | 14.9 |
| O=C(CCN1CCN(c2cccc3c2OCCO3)CC1)c1csc2ccc([N+](=O)[O-])cc12 [Example 21, 1-(5-nitrobenzo[b]thiophen-3-yl)-3-[4-(2,3-dihydro-1,4-benzodioxyn-5-yl)piperazin-1-yl]propan-1-one] | – | 3.2 | 15.9 |
| OC(CCN1CCN(c2cccc3[nH]ccc23)CC1)c1csc2ccc(F)cc12 (stereo not drawn) [Example 29, 1-(5-fluorobenzo[b]thiophen-3-yl)-3-[4-(indol-4-yl)piperazina-1-yl]propan-1-ol] | 170 to 173 | 5.9 | 7.3 |
| O=C(CCN1CCN(c2ccnc3ccccc23)CC1)c1csc2ccccc12 [Example 15, 1-(benzo[b]thiophen-3-yl) -3-[4-(quinol-4-yl)piperazin-1-yl]propan-1-one] | 134 to 136 | – | – |
| Cl.OC(CCN1CCN(c2cccc3[nH]ccc23)CC1)c1csc2ccccc12 (stereo not drawn) [Example 35, 1-(benzo[b]thiophen-3-yl)-3-[4-(indol-4-yl)piperazin-1-yl]propan-1-ol hydrochloride] | > 300 | 5.5 | 4.1 |
| OC(CCN1CCN(c2ccc3ncccc3c2)CC1)c1csc2ccccc12 (stereo not drawn) [Example 47, 1-(benzo[b]thiophen-3-yl)-3-[4-(quinol-6-yl)piperazin-1-yl]propan-1-ol] | – | 546 | 2.2 |
| O=C(CCN1CCN(c2cccc3[nH]ccc23)CC1)c1csc2ccccc12 [Example 10, 1-(benzo[b]thiophen-3-yl)-3-[4-(indol-4-yl)piperazin-1-yl]propan-1-one] | 83 to 85 | – | – |
| Cc1ccc2cccc(N3CCN(CCC(O)c4csc5ccc(F)cc45)CC3)c2n1 (stereo not drawn) [Example 30, 1-(5-fluorobenzo[b]thiophen-3-yl)-3-[4-(quinaldin-8-yl)piperazin-1-yl]propan-1-ol] | – | 2.5 | 8.5 |
| OC(CCN1CCN(c2ccnc3ccccc23)CC1)c1csc2ccccc12 (stereo not drawn) [Example 45, 1-(benzo[b]thiophen-3-yl)-3-[4-(quinol-4-yl)piperazin-1-yl]propan-1-ol hydrochloride] | – | 301 | 19.4 |
| Cl.OC(CCN1CCN(c2cccc3cccnc23)CC1)c1csc2ccccc12 (stereo not drawn) [Example 33, 1-(benzo[b]thiophen-3-yl)-3-[4-(quinol-8-yl)piperazin-1-yl]propan-1-ol hydrochloride] | 169 to 170 | 1.5 | 8.6 |
| O=[N+]([O-])c1ccc2scc(C(O)CCN3CCN(c4cccc5c4OCCO5)CC3)c2c1 (stereo not drawn) [Example 39, 1-(5-nitrobenzo[b]thiophen-3-yl)-3-[14-(2,3-dihydro-1,4-benzodioxyn-5-yl)piperazin-1-yl]propan-1-ol] | – | 14 | 6.9 |
| O=C(CCN1CCN(c2cnc3ccccc3c2)CC1)c1csc2ccccc12 [Example 16, 1-(benzo [b]thiophen-3-yl) -3-[4-(quinol-3-yl)piperazin-1-yl]propan-1-one] | 112 to 114 | – | – |
